Consider five molecules from ChEMBL document CHEMBL1201862, “PubChem BioAssay data set” (2004).

The nature of experiment [1]: HIV Env cell-cell fusion inhibitors, dose response, HIV entry, plate reader, dry powder (AID 687023). In kind it is functional, cell-based.
Experiment [2] can be described thus: CEM21 cell cytotoxicity, dose response, cytotoxicity control, plate reader, dry powder (AID 687026). In kind it is functional, cell-based.
The target of experiment [3] is Kappa-type opioid receptor (Homo sapiens, UniProt P41145). In words: Late-stage fluorescence-based cell-based dose response assay for antagonists of kappa opioid receptor 1 (OPRK1). It is filed as functional.
The target of experiment [4] is Sphingosine 1-phosphate receptor 1 (Homo sapiens, UniProt P21453). In words: Late-stage counterscreen for antagonists of kappa opioid receptor 1 (OPRK1): fluorescence-based cell-based dose response assay to identify antagonists of Sphingosine 1-Phosphate Receptor 1 (S1P1). It is filed as functional. In general terms: The purpose of a counterscreen is to sort out artefacts and off-target activity.

The target in experiment [5] is T1, Mu-type opioid receptor (Homo sapiens, UniProt P35372). Kind of experiment: Late-stage results from the probe development effort to identify antagonists of OPRK1: luminescence-based cell-based dose response OPRM1 counterscreen, Set 2. In kind it is functional.
Experiment [6] concerns the target T2, Delta-type opioid receptor (Homo sapiens, UniProt P41143). In words: Late-stage results from the probe development effort to identify antagonists of OPRK1: fluorescence-based cell-based dose response OPRD1 counterscreen, Set 2. It is filed as functional.
Experiment [7] is described as follows: HeLa cell cytotoxicity, dose response, cytotoxicity control, CellTiter-Glo luminescence, dry powder, set 2 (AID 720593). In kind it is functional, cell-based. In general terms: Cellular ATP, detected with luciferase, serves as a proxy for viable cell number.
A short description of experiment [8]: HepG2 hepatoma cell cytotoxicity, dose response, cytotoxicity control, CellTiter-Glo luminescence, dry powder, set 3 (AID 720594). In kind it is functional, cell-based.
Experiment [9] concerns the target T2, Delta-type opioid receptor. Kind of experiment: Late-stage results from the probe development effort to identify antagonists of OPRK1: fluorescence-based cell-based dose response OPRD1 counterscreen. It is filed as functional.
The target of experiment [10] is T1, Mu-type opioid receptor. Kind of experiment: Late-stage results from the probe development effort to identify antagonists of OPRK1: luminescence-based cell-based dose response OPRM1 counterscreen. It is filed as functional.
Experiment [11] in a line: HepG2 cell cytotoxicity, dose response, cytotoxicity control, ATP luminescence, dry powder, Set4 (AID 743143). It is filed as functional, cell-based.

Several values for one entry are separate records, joined by “and”; a condition that tells them apart may be missing. Identical values can stand only once. Activity calls are given as the source filed them. Unless noted, no cut-off for these calls is given here. Where only a bound is given, the exact number is not on record here.

The term AC50 denotes the midpoint of the concentration-response curve, whichever way the signal moves. The IC50 is the concentration needed to halve the response being measured.

T2 sequence (P41143 whole entry): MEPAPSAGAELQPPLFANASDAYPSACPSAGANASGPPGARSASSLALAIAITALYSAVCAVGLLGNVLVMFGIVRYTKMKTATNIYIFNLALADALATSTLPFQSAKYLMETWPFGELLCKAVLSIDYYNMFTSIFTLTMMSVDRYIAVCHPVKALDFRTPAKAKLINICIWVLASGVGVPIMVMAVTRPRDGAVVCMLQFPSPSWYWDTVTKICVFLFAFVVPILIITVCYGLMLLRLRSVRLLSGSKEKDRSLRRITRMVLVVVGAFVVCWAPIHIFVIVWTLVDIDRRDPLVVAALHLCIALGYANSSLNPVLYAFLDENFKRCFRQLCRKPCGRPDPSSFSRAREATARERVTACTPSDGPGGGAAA
T1 sequence (P35372 whole entry): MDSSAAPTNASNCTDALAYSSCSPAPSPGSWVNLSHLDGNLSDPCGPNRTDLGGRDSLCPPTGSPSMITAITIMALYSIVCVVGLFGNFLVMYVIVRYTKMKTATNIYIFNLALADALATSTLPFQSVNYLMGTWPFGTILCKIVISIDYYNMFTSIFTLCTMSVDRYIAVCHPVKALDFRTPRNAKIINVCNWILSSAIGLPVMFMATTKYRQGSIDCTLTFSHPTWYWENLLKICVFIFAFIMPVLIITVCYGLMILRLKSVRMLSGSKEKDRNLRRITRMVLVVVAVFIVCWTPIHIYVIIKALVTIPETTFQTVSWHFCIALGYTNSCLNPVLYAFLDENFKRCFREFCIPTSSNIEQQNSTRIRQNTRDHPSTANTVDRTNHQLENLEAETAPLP
Chain of Kappa-type opioid receptor (P41145 whole entry): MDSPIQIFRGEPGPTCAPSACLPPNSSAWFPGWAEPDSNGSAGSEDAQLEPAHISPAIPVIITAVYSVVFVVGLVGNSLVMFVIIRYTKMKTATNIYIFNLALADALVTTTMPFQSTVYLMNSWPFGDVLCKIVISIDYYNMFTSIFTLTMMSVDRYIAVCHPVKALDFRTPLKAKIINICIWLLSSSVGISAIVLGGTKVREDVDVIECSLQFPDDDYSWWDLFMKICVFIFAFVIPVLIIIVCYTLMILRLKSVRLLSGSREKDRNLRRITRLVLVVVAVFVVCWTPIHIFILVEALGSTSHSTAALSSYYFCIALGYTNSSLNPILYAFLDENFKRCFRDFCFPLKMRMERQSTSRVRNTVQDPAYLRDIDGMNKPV
Chain of Sphingosine 1-phosphate receptor 1 (P21453 whole entry): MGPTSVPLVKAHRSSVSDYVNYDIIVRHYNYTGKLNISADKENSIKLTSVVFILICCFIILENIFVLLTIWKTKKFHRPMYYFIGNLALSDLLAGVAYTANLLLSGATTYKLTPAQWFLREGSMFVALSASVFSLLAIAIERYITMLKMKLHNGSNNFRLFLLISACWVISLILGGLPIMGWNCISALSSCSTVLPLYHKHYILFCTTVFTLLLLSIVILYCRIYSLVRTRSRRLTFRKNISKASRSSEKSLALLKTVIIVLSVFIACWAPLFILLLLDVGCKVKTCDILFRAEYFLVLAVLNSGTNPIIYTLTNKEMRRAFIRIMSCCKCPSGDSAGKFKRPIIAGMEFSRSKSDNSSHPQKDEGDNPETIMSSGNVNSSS

As to `O=S(=O)(NCc1ccncc1)c1ccc2c(c1)OCCO2`, the AC50 was 125 nM (active) and 167 nM (active) in [1]; > 70 µM (inactive) in experiment [2].

`COc1cc([N+](=O)[O-])c(OC)cc1SCc1nnc(S)n1-c1ccc(C)cc1`: the IC50 in experiment [3] is 2.2 µM (active); in [4], > 50 µM (inactive); in [5], > 50 µM (inactive); in experiment [6] it was > 50 µM (inactive).

`COc1ccc(-c2nnc(NC(=O)c3ccc(S(=O)(=O)N4CCC(C)CC4)cc3)o2)cc1`: the AC50 in [7] and in [8] was > 52 µM (inactive) each time.

Turning to `COC(=O)c1cc(I)cnc1N1CCC(NC2CCCCC2)CC1`, the IC50 in experiment [9] was 2.5 µM (active); in [10], 0.479 µM (active).

As for `O=C(CCn1cnc2ccccc2c1=O)NC1CCCc2ccccc21` (stereo unspecified), in experiment [11], the AC50 is > 52 µM (inactive).
